Assay results as given in patent publication US4361582A, “Aldose reductase inhibition by γ-oxo-8-fluoranthenebutanoic acid” (Ayerst, McKenna & Harrison Inc., priority 1981, dated 1982).

How the values were obtained:
[1] = molecular target: lens aldose reductase (Bos taurus, UniProt P16116); experiment: in vitro aldose reductase inhibition test (modified Hayman and Kinoshita procedure); assay type: biochemical, bovine; conditions: statement in words
From the text: In the present case the procedure of Hayman and Kinoshita is modified in that the final chromatography step is omitted in the preparation of the enzyme from bovine lens.

[2] = Acheson et al., Gastroenterology, 37, 735 (1959); cited from earlier work

## O=C(O)CCC(=O)c1ccc2c(c1)-c1cccc3cccc-2c13 [Florantyrone, γ-Oxo-8-fluoranthenebutanoic acid]
[1]
  inhibitor of lens aldose reductase: potent inhibitor of lens aldose reductase
[2]
  hydrocholeretic activity: has hydrocholeretic activity
